Measured values taken from patent US20180221241A1, “ENHANCEMENT OF VASODILATORY FUNCTION AND LOWERING OF EFFECTIVE SYSTEMIC VASCULAR RESISTANCE” (THE GOVERNORS OF THE UNIVERSITY OF ALBERTA, priority 2015, published 2018).

Test system: second order mesenteric resistance arteries
Assay: Pressure myograph system, vessel lumen diameter under controlled barometric pressure
Design: species or system mice
Details: for maximal increase in lumen diameter, cumulative response curve to methylcholine: doses 1 nM to 1 μM, barometric pressure PB674; for constriction or relaxation of vessel to drug administered in the bath: vessels immersed in Ca2+-free solution, n=7, p>0.05
Description: Four-month-old male C57 mice were given access to standard chow and water ad-libitum and were housed on a 12 h-12 h light-dark cycle. Mice were euthanized through sodium pentobarbital administered interperitonially, and their mesenteries were removed and placed in freshly prepared cold physiological salt solution (10 HEPES, 5.5 glucose, 1.56 CaCl2, 4.7 KCl, 142 NaCl, 1.17 MgSO4, 1.18 KH2PO4, pH 7.5.).
Two second order resistance arteries were dissected of surrounding connective tissue and mounted within a pressure myograph system (Living Systems Instrumentation; Burlington, Vt.). Vessels were tied onto glass cannulas with microscopic suture thread segments. Each vessel was immersed in a physiological salt solution bath, maintained at a temperature of 37° C. with the aid of a built-in temperature feedback mechanism connected to a miniature heating system. Intravascular pressure and flow were measured and alterable using pressure and flow control systems. A peristaltic pump was used to maintain specific rates of flow across the lumens vessels mounted in the pressure myograph system. To mimic physiological conditions as best as possible, the vessels were oriented as such that flow would be applied in the same direction as in vivo blood flow. The vessels were maintained at a perfusion pressure of 60 mmHg, the approximated in vivo mesentery arterial pressure of mice.
Vessels were exposed to phenylephrine and methylcholine before the start of every protocol to ensure the vessel was intact and capable of responding to pressure and flow stimuli. In some protocols, one bath of the pressure myograph was infused with inhibitors of nitric oxide synthase and prostacyclins to inhibit the action of these two major endogenous endothelial vasodilators. This was performed in order to assess the effect of barometric pressure on mesenteric arteries isolated from the vasoactive influences of nitric oxide and prostacyclins.
The entire myograph system was enclosed within a barometric pressure controlled chamber, capable of being sealed and pressure-controlled when necessary (FIG. 11). A control pressure was established on the pressure sensor in relation to the atmospheric pressure denoted by the meteorological service of Canada (Edmonton station). Pressure conditions PB714 and PB674 were assigned as 40 mmHg and 80 mmHg below atmospheric pressure, respectively. The conditions were maintained through a pressure apparatus.
A pressure transducer and flow regulator coupled with a peristaltic pump mechanisms was set up so as to be manipulated from outside upon sealing the barometric pressure chamber around the myograph system. […]
Vessel diameters and wall thicknesses were recorded with the help of a microscope-coupled micrometer. […]

Structure (SMILES)	maximal increase in lumen diameter, cumulative response curve to methylcholine (with L-NAME and meclofenamate (FIG. 4B)) [%]	maximal increase in lumen diameter, cumulative response curve to methylcholine (without inhibitors (FIG. 4A)) [%]	constriction or relaxation of vessel to drug administered in the bath
CC(=O)OC(C)C[N+](C)(C)C (stereo not shown)	133	122	no constriction to phenylephrine or relaxation
CNC[C@H](O)c1cccc(O)c1 [phenylephrine]	–	–	no constriction
